Consider 34 molecules from US20240190821A1, “SULFONAMIDE SUBSTITUTED N-(1H-INDOL-7-YL)BENZENESULFONAMIDES AND USES THEREOF” (Triana Biomedicines, Inc., priority 2021, published 2024).

pEC50, pIC50: −log10 of the molar value. Like-named read-outs stand apart in the source and are kept apart here.

Test [1] deals with T1, DCAF15-RBM39 ternary complex (Homo sapiens, UniProt Q14498+Q66K64).
T1 construct: (RRM2)
The test can be described thus: Compound-induced DCAF15-RBM39 ternary complex formation, AlphaLISA. The test is classed as biochemical. The procedure:
Compound-induced DCAF15-RBM39 ternary complex formation was monitored using AlphaLISA® assays (Perkin Elmer, Waltham, MA). […] 9.8 ul of this protein mixture was then mixed with the compounds in the assay plate and incubated for one hour at room temperature. Reaction mixtures with no compounds added were included as negative controls, while a His-tagged and biotinylated GST protein was included to track general assay performance. […] The beads were then added to the assay plate sequentially with incubation at room temperature for 1-2 hours after each addition.
In general terms: Alpha assays give light when donor and acceptor beads are brought close together.

The target of test [2] is DCAF15 (Homo sapiens, UniProt Q66K64). The test can be described thus: Binary interaction between compounds and DCAF15, HTRF competition assay. In kind it is binding. The conditions noted are these: HTRF competition with Alexa Fluor 647 tracer, His-tagged DCAF15 complex; read-out: DCAF15 IC50. The procedure:
DCAF15 interactions with test compounds were monitored using HTRF competition assays (Cisbio, Bedford, MA). […] These two solutions were mixed and incubated for 15 min at room temperature. 9.8 ul of the tracer solution and 10 ul of the DCAF15/mAb Anti-6His-Eu cryptate Gold mixture were added sequentially to each well in the assay plate. Reaction mixtures with no DCAF15 added were included as […] controls. […] Binding was estimated based on ratiometric analysis and titration curves were generated in GraphPad Prism (7.00, GraphPad, La Jolla, CA).

[3] abbreviates: AlphaLISA, His-tagged DCAF15 complex and biotin-carrying RBM39, read-out: Ternary-RBM39 (RRM2) EC50.

T1 sequence (Q66K64 whole entry): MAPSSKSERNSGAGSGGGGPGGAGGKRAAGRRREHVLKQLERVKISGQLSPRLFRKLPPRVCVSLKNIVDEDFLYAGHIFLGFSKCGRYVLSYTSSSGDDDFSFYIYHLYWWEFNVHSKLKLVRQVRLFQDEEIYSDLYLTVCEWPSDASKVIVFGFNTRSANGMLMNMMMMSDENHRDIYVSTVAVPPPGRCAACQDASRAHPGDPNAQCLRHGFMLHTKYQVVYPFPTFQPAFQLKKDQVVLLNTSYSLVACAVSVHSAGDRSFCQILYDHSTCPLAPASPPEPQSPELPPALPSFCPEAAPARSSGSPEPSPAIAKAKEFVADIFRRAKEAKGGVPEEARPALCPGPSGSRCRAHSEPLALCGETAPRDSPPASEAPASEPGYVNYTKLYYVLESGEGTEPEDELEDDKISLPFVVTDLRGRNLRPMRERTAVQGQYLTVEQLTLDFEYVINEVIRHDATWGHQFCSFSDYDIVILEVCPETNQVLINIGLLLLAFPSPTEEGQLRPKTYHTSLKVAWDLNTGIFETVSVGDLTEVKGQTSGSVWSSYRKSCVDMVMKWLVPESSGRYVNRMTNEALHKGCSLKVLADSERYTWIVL
T1 sequence (Q14498 250-328 limits assumed): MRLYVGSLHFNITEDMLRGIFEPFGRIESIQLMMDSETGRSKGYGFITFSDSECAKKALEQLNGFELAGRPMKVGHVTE
T1 sequence (Q16531 whole entry partner): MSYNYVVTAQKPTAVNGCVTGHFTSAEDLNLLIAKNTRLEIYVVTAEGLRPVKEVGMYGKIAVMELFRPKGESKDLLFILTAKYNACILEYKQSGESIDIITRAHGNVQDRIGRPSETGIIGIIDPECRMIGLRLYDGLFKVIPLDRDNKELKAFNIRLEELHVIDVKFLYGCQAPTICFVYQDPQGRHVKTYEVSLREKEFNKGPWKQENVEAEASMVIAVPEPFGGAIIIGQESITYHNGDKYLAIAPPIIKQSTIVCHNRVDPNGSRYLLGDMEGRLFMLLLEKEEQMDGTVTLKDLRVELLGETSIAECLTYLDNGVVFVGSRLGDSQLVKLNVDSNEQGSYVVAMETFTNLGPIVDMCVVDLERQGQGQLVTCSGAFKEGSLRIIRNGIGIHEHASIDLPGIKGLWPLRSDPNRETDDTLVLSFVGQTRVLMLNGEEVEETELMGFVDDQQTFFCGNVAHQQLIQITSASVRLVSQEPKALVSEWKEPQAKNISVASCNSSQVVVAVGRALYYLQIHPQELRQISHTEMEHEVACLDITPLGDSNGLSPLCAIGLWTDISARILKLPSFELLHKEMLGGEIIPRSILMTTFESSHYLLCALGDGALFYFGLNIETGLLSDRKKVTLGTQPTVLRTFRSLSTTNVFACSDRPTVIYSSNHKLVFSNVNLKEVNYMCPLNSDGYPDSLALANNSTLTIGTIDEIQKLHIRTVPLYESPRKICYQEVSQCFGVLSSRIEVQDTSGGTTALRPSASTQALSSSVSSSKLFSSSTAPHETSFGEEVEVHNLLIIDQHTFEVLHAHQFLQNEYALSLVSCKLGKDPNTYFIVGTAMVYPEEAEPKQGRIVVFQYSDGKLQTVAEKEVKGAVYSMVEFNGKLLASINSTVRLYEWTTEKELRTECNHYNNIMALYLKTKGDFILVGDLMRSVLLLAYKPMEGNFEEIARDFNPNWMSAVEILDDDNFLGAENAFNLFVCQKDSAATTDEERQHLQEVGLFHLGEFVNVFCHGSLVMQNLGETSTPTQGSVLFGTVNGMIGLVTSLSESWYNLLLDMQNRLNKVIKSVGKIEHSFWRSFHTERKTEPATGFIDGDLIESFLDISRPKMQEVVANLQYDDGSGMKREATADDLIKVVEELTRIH
Chain of DCAF15 (Q66K64 whole entry): as the sequence (Q66K64 whole entry) above
Chain of DCAF15 (Q16531 whole entry partner): as the sequence (Q16531 whole entry partner) above

For orientation: pEC50 means the EC50 on a negative log10 scale, so that one unit is a factor of ten. The term pIC50 denotes the IC50 on a negative log10 scale, so that one unit is a factor of ten. Regarding `Cc1ccc(NS(=O)(=O)c2ccc(S(=O)(=O)N3C[C@H]4C[C@@H](C3)N4)cc2)c2[nH]cc(C#N)c12` [Compound 94, 4-(((1R,5S)-3,6-diazabicyclo[3.1.1]heptan-3-yl)sulfonyl)-N-(3-cyano-4-methyl-1H-indol-7-yl)benzenesulfonamide], the pEC50 in test [1] (setting [3]) is over 6.00. Moreover, in test [2], the negative logarithm of the IC50 (pIC50) was over 4.70. Taken in the same sequence, the figures for `CC(C)(C)OC(=O)NC1(CNS(=O)(=O)c2ccc(S(=O)(=O)Nc3ccc(Cl)c4c(Cl)c[nH]c34)cc2)CC1` [Compound 9, tert-butyl (1-(((4-(N-(3,4-dichloro-1H-indol-7-yl)sulfamoyl)phenyl)sulfonamido)methyl)cyclopropyl) carbamate] were over 4.70 and over 4.70. As for `O=S(=O)(Nc1ccc(Cl)c2c(Cl)c[nH]c12)c1ccc(S(=O)(=O)NC2CCNCC2)cc1` [Compound 29, N^1-(3,4-dichloro-1H-indol-7-yl)-N^4-(piperidin-4-yl)benzene-1,4-disulfonamide], the negative-log EC50 (pEC50) in test [1] (setting [3]) is over 6.00.

In the case of `CCC1CN(S(=O)(=O)c2ccc(S(=O)(=O)Nc3ccc(C)c4c(C#N)c[nH]c34)cc2)CCN1` (stereo not drawn) [Compound 84, N-(3-cyano-4-methyl-1H-indol-7-yl)-4-((3-ethylpiperazin-1-yl)sulfonyl) benzenesulfonamide], the negative logarithm of the EC50 (pEC50) in test [1] (setting [3]) was over 6.00. For the molecule `COCCN1CCN(S(=O)(=O)c2ccc(S(=O)(=O)Nc3ccc(C)c4c(C#N)c[nH]c34)cc2)CC1` [Compound 85, N-(3-cyano-4-methyl-1H-indol-7-yl)-4-((4-(2-methoxyethyl)piperazin-1-yl)sulfonyl)benzenesulfonamide], in test [1] (setting [3]), the negative logarithm of the EC50 (pEC50) was over 6.00. On to `CCCN(c1ccc(S(=O)(=O)Nc2ccc(Cl)c3c(Cl)c[nH]c23)cc1)S(=O)(=O)C1CCN(C)CC1` [Compound 62, N-(4-(N-(3,4-dichloro-1H-indol-7-yl)sulfamoyl)phenyl)-1-methyl-N-propylpiperidine-4-sulfonamide], for which the pEC50 in test [1] (setting [3]) was over 6.00. For `Cc1ccc(NS(=O)(=O)c2ccc(S(=O)(=O)N3CCOCC3)cc2)c2[nH]cc(C#N)c12` [Compound 90, N-(3-cyano-4-methyl-1H-indol-7-yl)-4-(morpholinosulfonyl)benzene sulfonamide], the pEC50 in test [1] (setting [3]) is over 6.00. For `CC1CNCCN1S(=O)(=O)c1ccc(S(=O)(=O)Nc2ccc(Cl)c3c(Cl)c[nH]c23)cc1` (stereo not drawn) [Compound 46, N-(3,4-dichloro-1H-indol-7-yl)-4-((2-methylpiperazin-1-yl)sulfonyl)benzene sulfonamide], in test [1] (setting [3]), the negative-log EC50 (pEC50) is over 6.00. For `O=S(=O)(Nc1ccc(Cl)c2c(Cl)c[nH]c12)c1ccc(NS(=O)(=O)C2CCNCC2)cc1` [Compound 65, N-(4-(N-(3,4-dichloro-1H-indol-7-yl)sulfamoyl)phenyl)piperidine-4-sulfonamide], the negative logarithm of the EC50 (pEC50) in test [1] (setting [3]) is over 5.30. On the same count and under the same terms, in the case of `Cc1ccc(NS(=O)(=O)c2ccc(S(=O)(=O)N3CC4(CNC4)C3)cc2)c2[nH]cc(C#N)c12` [Compound 93, 4-((2,6-diazaspiro[3.3]heptan-2-yl)sulfonyl)-N-(3-cyano-4-methyl-1H-indol-7-yl)benzenesulfonamide] it was over 6.00; in that of `O=C(NS(=O)(=O)c1ccc(Br)s1)c1ccc(Cl)cc1Cl` [Tasisulam, tasisulam, reference compound], over 5.30. Turning to `CCS(=O)(=O)CCNS(=O)(=O)c1ccc(S(=O)(=O)Nc2ccc(Cl)c3c(Cl)c[nH]c23)cc1` [Compound 3, N^1-(3,4-dichloro-1H-indol-7-yl)-N^4-(2-(ethylsulfonyl)ethyl) benzene-1,4-disulfonamide], the negative logarithm of the EC50 (pEC50) in test [1] (setting [3]) is over 6.00. Consider `Cc1ccc(NS(=O)(=O)c2ccc(S(=O)(=O)N3CCNCC3)cc2)c2[nH]cc(C#N)c12` [Compound 83, N-(3-cyano-4-methyl-1H-indol-7-yl)-4-(piperazin-1-ylsulfonyl)benzene sulfonamide], for which, in test [1] (setting [3]), the negative logarithm of the EC50 (pEC50) was over 6.00.

`C#CCOCCOCCOCC(=O)N(CCC)c1ccc(S(=O)(=O)Nc2ccc(Cl)c3c(Cl)c[nH]c23)cc1` [compound 132]: the negative logarithm of the EC50 (pEC50) in test [1] (setting [3]) was over 5.30. On to `COc1cc(NS(=O)(=O)c2cccc(C#N)c2)c2[nH]cc(Cl)c2c1` [Compound 103, N-(3-chloro-5-methoxy-1H-indol-7-yl)-3-cyanobenzenesulfonamide], for which the pEC50 in test [1] (setting [3]) is over 6.00. For `Cc1ccc(NS(=O)(=O)c2ccc(S(=O)(=O)N(C)C3CNC3)cc2)c2[nH]cc(C#N)c12` [Compound 79, N^1-(azetidin-3-yl)-N^4-(3-cyano-4-methyl-1H-indol-7-yl)-N^1-methylbenzene-1,4-disulfonamide], in test [1] (setting [3]), the negative logarithm of the EC50 (pEC50) is over 6.00.

Regarding `O=S1(=O)CCC(OCCNS(=O)(=O)c2ccc(S(=O)(=O)Nc3ccc(Cl)c4c(Cl)c[nH]c34)cc2)CC1` [Compound 4, N^1-(3,4-dichloro-1H-indol-7-yl)-N4_ (2-((1,1-dioxidotetrahydro-2H-thiopyran-4-yl)oxy)ethyl) benzene-1,4-disulfonamide], the pEC50 in test [1] (setting [3]) was over 6.00. For `O=S(=O)(Nc1ccc(Cl)c2c(Cl)c[nH]c12)c1ccc(S(=O)(=O)N2CCCCC2)cc1` [Compound 37, N-(3,4-dichloro-1H-indol-7-yl)-4-(piperidin-1-ylsulfonyl)benzenesulfonamide], the negative-log EC50 (pEC50) in test [1] (setting [3]) is over 6.00. Consider `Cc1ccc(NS(=O)(=O)c2ccc(S(=O)(=O)N3CCNC(=O)C3)cc2)c2[nH]cc(C#N)c12` [Compound 89, N-(3-cyano-4-methyl-1H-indol-7-yl)-4-((3-oxopiperazin-1-yl)sulfonyl)benzenesulfonamide], for which the pEC50 in test [1] (setting [3]) was over 6.00. Still for that read-out and setting: in the case of `Cc1ccc(NS(=O)(=O)c2cc(F)cc(C#N)c2)c2[nH]cc(C#N)c12` [Compound 98, 3-cyano-N-(3-cyano-4-methyl-1H-indol-7-yl)-5-fluorobenzenesulfonamide] it was over 6.00. As for `O=S(=O)(Nc1ccc(Cl)c2c(Cl)c[nH]c12)c1cccc(S(=O)(=O)N2CCNCC2)c1` [Compound 41, N-(3,4-dichloro-1H-indol-7-yl)-3-(piperazin-1-ylsulfonyl)benzenesulfonamide], in test [1] (setting [3]), the negative-log EC50 (pEC50) was over 6.00. Same read-out and setting: next, `COCCc1cn(-c2cccc(S(=O)(=O)Nc3ccc(C)c4c(C#N)c[nH]c34)c2)nn1` [Compound 97, N-(3-cyano-4-methyl-1H-indol-7-yl)-3-(4-(2-methoxyethyl)-1H-1,2,3-triazol-1-yl)benzenesulfonamide]: over 6.00; `O=S(=O)(Nc1ccc(Cl)c2c(Cl)c[nH]c12)c1ccc(Br)cc1` [Compound 75, 4-bromo-N-(3,4-dichloro-1H-indol-7-yl)benzenesulfonamide]: over 5.30. Still for that read-out and setting: next, `O=S(=O)(Nc1cccc2cc[nH]c12)c1ccc(S(=O)(=O)N2CCNCC2)cc1` [compound 145]: over 5.30. With `Cc1ccc(NS(=O)(=O)c2ccc(S(=O)(=O)N3CCCC(N)C3)cc2)c2[nH]cc(C#N)c12` (stereo not drawn) [Compound 82, 4-((3-aminopiperidin-1-yl)sulfonyl)-N-(3-cyano-4-methyl-1H-indol-7-yl) benzenesulfonamide], the pEC50 in test [1] (setting [3]) was over 6.00.

As to `CCCC1CN(S(=O)(=O)c2ccc(S(=O)(=O)Nc3ccc(Cl)c4c(Cl)c[nH]c34)cc2)CCN1` (stereo not drawn) [compound 110], the pIC50 in test [2] was over 5.30. Turning to `CCN(CC)C(=O)c1ccc(CNS(=O)(=O)c2ccc(S(=O)(=O)Nc3ccc(Cl)c4c(Cl)c[nH]c34)cc2)cc1` [Compound 12, 4-(((4-(N-(3,4-dichloro-1H-indol-7-yl)sulfamoyl)phenyl)sulfonamido)methyl)-N,N-diethylbenzamid], the pEC50 in test [1] (setting [3]) is over 4.70. Regarding `O=S(=O)(Nc1ccc(Cl)c2c(Cl)c[nH]c12)c1ccc(S(=O)(=O)NC2CCc3ccccc32)cc1` (stereo not drawn) [Compound 34, N^1-(3,4-dichloro-1H-indol-7-yl)-N^4-(2,3-dihydro-1H-inden-1-yl)benzene-1,4-disulfonamide], the negative-log EC50 (pEC50) in test [1] (setting [3]) was over 4.70. For the molecule `N#Cc1ccc(CCCN2CCN(S(=O)(=O)c3ccc(S(=O)(=O)Nc4ccc(Cl)c5c(Cl)c[nH]c45)cc3)CC2)cc1` [Compound 50, 4-((4-(3-(4-cyanophenyl)propyl)piperazin-1-yl)sulfonyl)-N-(3,4-dichloro-1H-indol-7-yl)benzenesulfonamide], the negative-log EC50 (pEC50) in test [1] is over 6.00. With `CN1CCN(S(=O)(=O)c2ccc(S(=O)(=O)Nc3ccc(Cl)c4c(Cl)c[nH]c34)cc2)CC1` [Compound 48, N-(3,4-dichloro-1H-indol-7-yl)-4-((4-methylpiperazin-1-yl)sulfonyl)benzenesulfonamide], the pEC50 in test [1] (setting [3]) is over 6.00. Take `O=S(=O)(NCCc1ccccn1)c1ccc(S(=O)(=O)Nc2ccc(Cl)c3c(Cl)c[nH]c23)cc1` [Compound 26, N^1-(3,4-dichloro-1H-indol-7-yl)-N^4-(2-(pyridin-2-yl)ethyl)benzene-1,4-disulfonamide]: the pEC50 in test [1] (setting [3]) is over 5.30. Consider `O=S(=O)(NCCOCC1CC1)c1ccc(S(=O)(=O)Nc2ccc(Cl)c3c(Cl)c[nH]c23)cc1` [Compound 6, N^1-(2-(cyclopropylmethoxy)ethyl)-N^4-(3,4-dichloro-1H-indol-7-yl)benzene-1,4-disulfonamide], for which the pEC50 in test [1] (setting [3]) is over 5.30.

Regarding `CCOC(=O)N1CCN(S(=O)(=O)c2ccc(S(=O)(=O)Nc3ccc(Cl)c4c(Cl)c[nH]c34)cc2)CC1` [Compound 49, ethyl 4-((4-(N-(3,4-dichloro-1H-indol-7-yl)sulfamoyl)phenyl)sulfonyl)piperazine-1-carboxylate], the pEC50 in test [1] (setting [3]) was over 5.30.

Regarding `O=S(=O)(Nc1ccc(C2CC2)c2c(Cl)c[nH]c12)c1ccc(S(=O)(=O)N2CCNCC2)cc1` [compound 147], the pIC50 in test [2] is over 4.00.
